Experiment [1] concerns the target EGFR del19 (Homo sapiens (Human), UniProt P00533, DEL746-750). The experiment in a line: HTRF inhibitory activity against EGFR mutant enzyme (EGFR del19). The format is biochemical. To be noted: recombinant enzyme, 37° C. for 2 hours. The method, then: (§1) The activity of the compounds of the present invention against EGFR mutant enzymes was measured using the HTRF system purchased from Cisbio as follows. For an EGFR mutant enzyme, the EGFR del19 enzyme was a recombinant protein purchased from Carna Biosciences, and the EGFR A763_Y764insFHEA enzyme was a recombinant protein purchased from SignalChem, respectively.
(§2) The composition of the assay buffer used for activity measurement was 50 mM tris-HCl pH 7.5, 100 mM NaCl, 7.5 mM MgCl2, 3 mM KCl, 0.01% tween 20, 0.1% BSA, and 1 mM DTT. An enzymatic reaction was performed using a peptide substrate labeled with ATP at a concentration of […] and biotin at a concentration of […]. The analysis of the inhibitory effect of the compounds on EGFR activity was performed according to the following method. • Component 1:4 μL of EGFR mutant enzyme • Component 2:2 μL of compound solution • Component 3:4 μL of ATP and a biotin labeled peptide
(§3) The enzyme reaction begins by first mixing component 1 and component 2 and then adding component 3 thereto. After the reaction at 37° C. for 2 hours, […] of a measurement solution consisting of streptavidin-XL665 and a europium-labeled anti-phosphotyrosine antibody purchased from Cisbio was added to the enzyme reaction solution and reacted at room temperature for 1 hour. Finally, the ratio of fluorescence values at 615 nm and 665 nm was measured using Perkin-Elmer's Envision instrument to calculate enzyme activity and confirm the inhibitory ability of the compounds. The measured values at 7 compound concentrations were analyzed using the Prism program (version 5.01, Graphpad Software, Inc.), and the IC50 (μM) values, which are measures of the compounds' inhibitory activity, were calculated.
In general terms: TR-FRET usually uses a lanthanide donor and a delayed reading to cut background.

Experiment [2] addresses EGFR A763_Y764insFHEA (Homo sapiens (Human), UniProt P00533, INS763FHEA). Put plainly: HTRF inhibitory activity against EGFR mutant enzyme (EGFR A763_Y764insFHEA). The class given is biochemical. To be noted: recombinant enzyme, 37° C. for 2 hours. The method, then:
as §1, §2, §3

Experiment [3] deals with HER2 A775_G776insYVMA (Homo sapiens (Human), UniProt P04626, INS775YVMA). The experiment in a line: HTRF inhibitory activity against HER2 mutant enzyme. The class given is biochemical. To be noted: recombinant enzyme, 37° C. for 2 hours. The method, then:
The activity of the compounds of the present invention against HER mutant enzymes was measured using the HTRF system purchased by Cisbio as follows. As a HER2 mutant enzyme, the HER2 A775_G776insYVMA mutant enzyme was used by purchasing a recombinant protein provided by Carna Biosciences.
as §2, with “mM DTT. In addition thereto, the enzymatic reaction” for “mM DTT. An enzymatic reaction”, “of the activity inhibitory effect” for “of the inhibitory effect”, “compounds on HER2 A775_G776insYVMA mutation was performed” for “compounds on EGFR activity was performed”, “μL of HER2 A775_G776insYVMA mutant enzyme” for “μL of EGFR mutant enzyme”
as §3, with “Finally, the ratio of fluorescence values at 615 nm and 665 nm was measured using Perkin-Elmer's Envision instrument to calculate enzyme activity and confirm the inhibitory ability of the compounds.” left out, “ability,” for “activity,”

For experiment [4], the system named is Ba/F3 HER2 A775_G776insYVMA. The experiment in a line: Growth inhibition of Ba/F3 HER2 mutant cells (CellTiter-Glo). The class given is cell-based. Particulars: Mus musculus, BaF3, 72 hours. The method, then:
The activity of the compounds of the present invention against Ba/F3 HER2 A775_G776insYVMA and Ba/F3 HER2 G776delinsVC mutant cell lines was measured using the CellTiter-Glo system purchased from Promega as follows. CellTiter-Glo assay is a method to measure cell viability by monitoring ATP present in cells. Ba/F3 HER2 A775_G776insYVMA and Ba/F3 HER2 G776delinsVC mutant cell lines were purchased from Crown Biosciences. Ba/F3 HER2 A775_G776insYVMA and Ba/F3 HER2 G776delinsVC mutant cell lines were cultured in RPMI containing 10% FBS and 1% penicillin-streptomycin with 1 μg/mL of puromycin in a CO2 incubator at 37° C.
(§4) The analysis of the ability of the compounds to inhibit the growth of HER2 mutant cells was performed according to the following method. 1,000 cells/100 μL were seeded in a 96-well cell culture plate, and 24 hours thereafter, the compounds represented by Formula 1 were treated with 0 μM, 0.01 μM, 0.03 μM, 0.1 μM, 0.3 μM, 1 μM, 3 μM, and 10 μM. After reacting for 72 hours, the plate treated with the compounds were left at room temperature for 30 minutes, 100 μL of a reagent was added thereto, and then shaken at room temperature for 10 minutes. Finally, using equipment, the ratio of […] was measured to confirm the cell growth inhibition ability of the compounds. The measured values at 8 compound concentrations were analyzed using the Prism program (version 5.01, Graphpad Software, Inc.), and the IC50 (μM) values, which are measures of the compounds' inhibitory ability, were calculated.

Experiment [5] has as its system Ba/F3 EGFR V769_D770insASV. Put plainly: Growth inhibition of Ba/F3 EGFR mutant cells (CellTiter-Glo). The class given is cell-based. To be noted: 72 hours. Here is the method: (§5) The activity of the compounds of the present invention against Ba/F3 EGFR V769_D770insASV and Ba/F3 EGFR D770_N771insSVD mutant cell lines was measured using the CellTiter-Glo system purchased from Promega as follows. CellTiter-Glo assay is a method to measure cell viability by monitoring ATP present in cells. Ba/F3 EGFR V769_D770insASV and Ba/F3 EGFR D770_N771insSVD mutant cell lines were purchased from Crown Biosciences. Ba/F3 EGFR V769_D770insASV and Ba/F3 EGFR D770_N771insSVD mutant cell lines were cultured in RPMI containing 10% FBS and 1% penicillin-streptomycin with 1 μg/mL of puromycin in a 5% CO2 incubator at 37° C.
as §4, with “growth of EGFR mutant cells” for “growth of HER2 mutant cells”, “μM. After incubating for 72” for “μM. After reacting for 72”, “reagent was further added thereto,” for “reagent was added thereto,”

For experiment [6], the system named is Ba/F3 EGFR D770_N771insSVD. The description is as above. The class given is cell-based. Particulars: Ba/F3 EGFR-D770-N771ins_SVD, 72 hours. The method, then:
as §5
as §4, with “growth of EGFR mutant cells” for “growth of HER2 mutant cells”, “μM. After incubating for 72” for “μM. After reacting for 72”, “reagent was further added thereto,” for “reagent was added thereto,”

Each structure is given as a SMILES string. pIC50: −log10 of the molar value.

Chain of EGFR A763_Y764insFHEA (P00533 other isoform, or with tags, fused parts or gaps del 1-694/ins FHEA behind 763 limits assumed): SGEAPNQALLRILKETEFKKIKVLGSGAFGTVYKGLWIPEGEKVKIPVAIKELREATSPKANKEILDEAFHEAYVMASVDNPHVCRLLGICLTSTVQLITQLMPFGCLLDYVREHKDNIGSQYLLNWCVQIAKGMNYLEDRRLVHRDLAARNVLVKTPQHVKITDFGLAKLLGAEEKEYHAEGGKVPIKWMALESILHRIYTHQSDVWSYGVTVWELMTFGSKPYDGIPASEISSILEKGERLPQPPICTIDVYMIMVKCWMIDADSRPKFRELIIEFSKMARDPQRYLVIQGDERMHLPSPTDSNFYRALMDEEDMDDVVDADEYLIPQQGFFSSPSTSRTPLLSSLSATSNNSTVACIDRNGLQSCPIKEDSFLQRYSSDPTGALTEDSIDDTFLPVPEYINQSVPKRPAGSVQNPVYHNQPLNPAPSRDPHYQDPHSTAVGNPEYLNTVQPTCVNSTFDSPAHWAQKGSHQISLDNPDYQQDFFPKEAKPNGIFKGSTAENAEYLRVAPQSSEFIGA
Chain of EGFR del19 (P00533 other isoform, or with tags, fused parts or gaps del 1-668/del 746-750 limits assumed): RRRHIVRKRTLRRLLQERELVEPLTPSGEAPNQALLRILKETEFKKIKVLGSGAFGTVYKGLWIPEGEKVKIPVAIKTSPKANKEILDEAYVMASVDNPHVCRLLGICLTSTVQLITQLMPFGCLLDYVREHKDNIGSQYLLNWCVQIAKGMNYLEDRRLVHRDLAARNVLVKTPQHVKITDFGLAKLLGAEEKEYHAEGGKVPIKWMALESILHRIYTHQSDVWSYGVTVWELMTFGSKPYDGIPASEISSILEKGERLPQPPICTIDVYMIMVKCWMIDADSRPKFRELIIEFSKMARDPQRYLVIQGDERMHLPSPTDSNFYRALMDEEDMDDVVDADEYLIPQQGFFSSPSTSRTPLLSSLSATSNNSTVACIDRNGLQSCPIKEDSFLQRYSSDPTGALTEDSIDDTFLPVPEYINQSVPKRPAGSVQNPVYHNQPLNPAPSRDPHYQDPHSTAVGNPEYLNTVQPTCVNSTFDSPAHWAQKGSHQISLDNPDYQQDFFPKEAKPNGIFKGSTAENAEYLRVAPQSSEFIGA
Chain of HER2 A775_G776insYVMA (P04626 other isoform, or with tags, fused parts or gaps del 1-675/ins YVMA behind 775 limits assumed): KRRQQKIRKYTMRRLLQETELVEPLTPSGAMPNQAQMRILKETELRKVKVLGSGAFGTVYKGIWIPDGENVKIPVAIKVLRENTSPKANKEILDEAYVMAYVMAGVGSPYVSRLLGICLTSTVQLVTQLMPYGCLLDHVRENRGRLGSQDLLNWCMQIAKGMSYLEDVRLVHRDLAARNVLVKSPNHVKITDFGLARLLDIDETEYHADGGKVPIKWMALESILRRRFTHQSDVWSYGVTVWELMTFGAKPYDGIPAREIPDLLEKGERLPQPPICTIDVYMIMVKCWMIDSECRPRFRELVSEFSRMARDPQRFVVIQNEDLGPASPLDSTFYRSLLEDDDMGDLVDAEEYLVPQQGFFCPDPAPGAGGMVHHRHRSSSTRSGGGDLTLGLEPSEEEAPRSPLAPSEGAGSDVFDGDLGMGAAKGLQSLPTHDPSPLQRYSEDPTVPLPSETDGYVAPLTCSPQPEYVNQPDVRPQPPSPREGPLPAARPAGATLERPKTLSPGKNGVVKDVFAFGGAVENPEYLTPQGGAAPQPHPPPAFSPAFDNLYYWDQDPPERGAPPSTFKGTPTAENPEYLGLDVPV

Take `C=CC(=O)Nc1cc(Nc2ncc(Cl)c(Nc3ccccc3NS(=O)(=O)CCC)n2)c(OC)cc1N(C)CCN(C)C` [Example 1, N-(5-((5-chloro-4-((2-(propylsulfonamido)phenyl)amino)pyrimidin-2-yl)amino)-2-((2-(dimethylamino)ethyl)(methyl)amino)-4-methoxyphenyl)acrylamide]: the negative-log IC50 (pIC50) – broadly, the IC50 on a negative log10 scale, so that one unit is a factor of ten – in experiment [1] is more than 9.00; in experiment [2], 8.40; in experiment [3], 6.85; in experiment [4] it was 7.30 to 7.52.
The like results for `C=CC(=O)Nc1cc(Nc2ncc(Cl)c(Nc3ccccc3NS(=O)(=O)c3ccccc3)n2)c(OC)cc1N(C)CCN(C)C` [Example 2, N-(5-((5-chloro-4-((2-(phenylsulfonamido)phenyl)amino)pyrimidin-2-yl)amino)-2-((2-(dimethylamino)ethyl)(methyl)amino)-4-methoxyphenyl)acrylamide] were, in that order, more than 9.00, 8.52, 6.51 and 7.30 to 7.52.
The like results for `C=CC(=O)Nc1cc(Nc2ncc(Cl)c(Nc3ccccc3NS(=O)(=O)c3ccc(C)cc3)n2)c(OC)cc1N(C)CCN(C)C` [Example 3, N-(5-((5-chloro-4-((2-((4-methylphenyl)sulfonamido)phenyl)amino)pyrimidin-2-yl)amino)-2-((2-(dimethylamino)ethyl)(methyl)amino)-4-methoxyphenyl)acrylamide] were, in that order, more than 9.00, 8.70, 6.35 and 7.30 to 7.52.
In the case of `C=CC(=O)Nc1cc(Nc2ncc(Cl)c(Nc3ccccc3NS(=O)(=O)C(C)C)n2)c(OC)cc1N(C)CCN(C)C` [Example 5, N-(5-((5-chloro-4-((2-((1-methylethyl)sulfonamido)phenyl)amino)pyrimidin-2-yl)amino)-2-((2-(dimethylamino)ethyl)(methyl)amino)-4-methoxyphenyl)acrylamide], the pIC50 in experiment [1] is more than 9.00; in experiment [2], more than 9.00; in experiment [3], 7.47; in experiment [4], 7.30 to 7.52.
For `C=CC(=O)Nc1cc(Nc2nccc(Nc3ccccc3NS(=O)(=O)c3ccccc3)n2)c(OC)cc1N(C)CCN(C)C` [Example 6, N-(2-((2-(dimethylamino)ethyl)(methyl)amino)-4-methoxy-5-((4-((2-(phenylsulfonamido)phenyl)amino)pyrimidin-2-yl)amino)phenyl)acrylamide], the negative-log IC50 (pIC50) in experiment [1] was 8.15; in experiment [2] it was 7.70; in experiment [3], 5.92; in experiment [4] it was 7.30 to 7.52.
The like results for `C=CC(=O)Nc1cc(Nc2nccc(Nc3ccccc3NS(C)(=O)=O)n2)c(OC)cc1N(C)CCN(C)C` [Example 7, N-(2-((2-(dimethylamino)ethyl)(methyl)amino)-4-methoxy-5-((4-((2-(methylsulfonamido)phenyl)amino)pyrimidin-2-yl)amino)phenyl)acrylamide] were, in that order, more than 9.00, 8.30, 6.55 and 7.30 to 7.52.
As to `C=CC(=O)Nc1cc(Nc2ncc(F)c(Nc3ccccc3NS(C)(=O)=O)n2)c(OC)cc1N(C)CCN(C)C` [Example 11, N-(2-((2-(dimethylamino)ethyl)(methyl)amino)-5-((5-fluoro-4-((2-(methylsulfonamido)phenyl)amino)pyrimidin-2-yl)amino)-4-methoxyphenyl)acrylamide], the negative-log IC50 (pIC50) in experiment [1] is more than 9.00; in experiment [2] it was 9.00; in experiment [3], 7.15; in experiment [5], less than 7.00; in experiment [4] it was less than 7.00.
`C=CC(=O)Nc1cc(Nc2ncc(C)c(Nc3ccccc3NS(C)(=O)=O)n2)c(OC)cc1N(C)CCN(C)C` [Example 16, N-(2-((2-(dimethylamino)ethyl)(methyl)amino)-4-methoxy-5-((5-methyl-4-((2-(methylsulfonamido)phenyl)amino)pyrimidin-2-yl)amino)phenyl)acrylamide]: the pIC50 in experiment [1] was more than 9.00; in experiment [2], 8.70; in experiment [3], 7.29; in experiment [5], less than 7.00; in experiment [4], less than 7.00.
`C=CC(=O)Nc1cc(Nc2ncc(Cl)c(Nc3ccccc3NS(C)(=O)=O)n2)c(OC)cc1N(C)CCN1CCCC1` [Example 21, N-(5-((5-chloro-4-((2-(methylsulfonamido)phenyl)amino)pyrimidin-2-yl)amino)-4-methoxy-2-(methyl(2-(pyrrolidin-1-yl)ethyl)amino)phenyl)acrylamide]: the pIC50 in experiment [1] was 9.00; in experiment [2] it was 8.52; in experiment [3], 7.34; in experiment [4], 7.30 to 7.52.
As to `C=CC(=O)Nc1cc(Nc2ncc(Cl)c(Nc3cccc4c3N(S(C)(=O)=O)CC4)n2)c(OC)cc1N(C)CCN1CCCCC1` [Example 72, N-(5-((5-chloro-4-((1-(methylsulfonyl)indolin-7-yl)amino)pyrimidin-2-yl)amino)-4-methoxy-2-(methyl(2-(piperidin-1-yl)ethyl)amino)phenyl)acrylamide], the pIC50 is more than 9.00 in experiment [1]; more than 9.00 in experiment [2]; 9.00 in experiment [3]; more than 8.00 in experiment [6]; 7.52 to 8.00 in experiment [5].

The record behind these values is patent US20240343694A1, “PYRIMIDINE DERIVATIVE, METHOD FOR PREPARING SAME, AND PHARMACEUTICAL COMPOSITION FOR PREVENTING OR TREATING CANCER COMPRISING SAME AS ACTIVE INGREDIENT” (KOREA RESERARCH INSTITUTE OF CHEMICAL TECHNOLOGY, priority 2021, published 2024).
